Read-outs that look alike come from different tables or passages of the source.
Biological target: SARS-CoV-2 M^PRO (Severe acute respiratory syndrome coronavirus 2, UniProt P0DTD1)
Experiment: biochemical
Type: biochemical
Details: In vitro potency data, 30 min pre-incubation, 25 nM M^pro, 25 µM substrate, read-out: IC50

Row | Structure (SMILES) | IC50 [nM] | IC50 (listed as INSCoV-601R(lA)) [nM]
1 | O=C(NC1CCCCC1)C(c1cccnc1)N(Cc1cccc(C(F)(F)F)c1)C(=O)CCl (stereo not drawn) [INSCoV-574, 2-Chloro-N-(2-(Cyclohexylamino)-2-Oxo-1-(Pyridin-3-yl)Ethyl)-N-(3-(Trifluoromethyl)Benzyl)Acetamide] | 1270 | –
2 | O=C(NC1CCC(F)(F)CC1)[C@H](c1cncnc1)N(C(=O)[C@H](F)Cl)c1ccc(-c2cncs2)cc1 (single isomer, unassigned) [INSCoV-614(1A), 2-Chloro-N-(2-((4,4-difluorocyclohexyl)amino)-2-oxo-1-(pyrimidin-5-yl)ethyl)-2-fluoro-N-(4-(thiazol-5-yl)phenyl)acetamide] | > 25000 | –
3 | CC1(NC(=O)C(c2cncnc2)N(C(=O)CCl)c2ccc(-c3cnco3)cc2)COC1 (stereo not drawn) [INSCoV-600E, 2-(N-(2-chloroacetyl)-4-oxazol-5-yl-anilino)-N-(3-methyloxetan-3-yl)-2-pyrimidin-5-yl-acetamide] | 570 | –
4 | O=C(NC1CCCCC1)C(c1cccnc1)N(C(=O)CCl)c1ccc2ccoc2c1 (stereo not drawn) [INSCoV-576, 2-[Benzofuran-6-yl-(2-chloroacetyl)amino]-N-cyclohexyl-2-(3-pyridyl)acetamide] | 4670 | –
5 | N#Cc1cc(OC(F)(F)F)ccc1N(C(=O)[C@H](F)Cl)[C@@H](C(=O)NC1CCC(F)(F)CC1)c1cncnc1 (single isomer, unassigned) [INSCoV-517C(2), 2-Chloro-N-(2-cyano-4-(trifluoromethoxy)phenyl)-N-(2-((4,4-difluorocyclohexyl)amino)-2-oxo-1-(pyrimidin-5-yl)ethyl)-2-fluoroacetamide] | 11400 | –
6 | CC1(C)OCc2cc(N(C(=O)CCl)C(C(=O)Nc3cncc4ccccc34)c3ccno3)cnc21 (stereo not drawn) [INSCoV-704] | 19400 | –
7 | CCS(=O)(=O)N1CCC(NC(=O)C(c2cncnc2)N(C(=O)CCl)c2ccc(-c3cnco3)cc2)CC1 (stereo not drawn) [INSCoV-501H(1)] | 630 | –
8 | O=C(N[C@@H]1CCOC1)[C@@H](c1cncnc1)N(C(=O)CCl)c1ccc(-c2cnco2)cc1 [INSCoV-600C(2B)] | 160 | –
9 | Cc1ccccc1CCN(C(=O)CCl)C(C(=O)NC1CCCCC1)c1cccnc1 (stereo not drawn) [INSCoV-503A] | 2630 | –
10 | O=C(NC1CCCCC1)C(c1cccnc1)N(CCc1ccccc1F)C(=O)CCl (stereo not drawn) [INSCoV-503G] | 2300 | –
11 | O=C(NC1CCOC1)[C@H](c1cncnc1)N(C(=O)CCl)c1ccc(-c2cncs2)cc1 (stereo partly drawn) [INSCoV-601R(1A)] | – | 140
12 | O=C(NC1CCC(F)(F)CC1)C(c1ccnnc1)N(C(=O)CCl)c1ccc(-c2ccno2)cc1 (stereo not drawn) [INSCoV-537K, 2-Chloro-N-(2-((4,4-Difluorocyclohexyl)Amino)-2-Oxo-1-(Pyridazin-4-yl)Ethyl)-N-(4-(Isoxazol-5-yl)Phenyl)Acetamide] | 360 | –
13 | N#Cc1cc(OC(F)(F)F)ccc1N(C(=O)CCl)[C@H](C(=O)NC1CCCCC1)c1cccnc1 [INSCoV-517(2)] | 1940 | –
14 | O=C(NC1CCC(F)(F)CC1)C(c1cncnc1)N(C(=O)CF)c1ccc(-c2cncs2)cc1 (stereo not drawn) [INSCoV-615] | 11400 | –
15 | O=C(NC1CCC(F)(F)CC1)C(c1ccnnc1)N(C(=O)CCl)c1ccc(-c2ccns2)cc1 (racemic) [INSCoV-601J] | 120 | –
16 | O=C(N[C@H]1CCOC1)[C@H](c1cncnc1)N(C(=O)CCl)c1ccc(-c2cnco2)cc1 [INSCoV-600C(1B)] | 310 | –
17 | Cc1ccc(S(=O)(=O)C(C)NC(=O)C(c2cccnc2)N(C(=O)CCl)c2ccc(C(C)(C)C)cc2)cc1 (stereo not drawn) [INSCoV-531] | 12700 | –
18 | N#Cc1cc(OC(F)(F)F)ccc1N(C(=O)CCl)C(C(=O)NC1CCC(F)(F)CC1)c1cnccn1 (stereo not drawn) [INSCoV-517B] | 170 | –
19 | O=C(NC1CCC(F)(F)CC1)[C@@H](c1cncnc1)N(C(=O)[C@@H]1CO1)c1ccc(-c2cnco2)cc1 [INSCoV-600R(2B)] | > 25000 | –
20 | O=C(N[C@H]1CCOC1)C(c1cnccn1)N(C(=O)CCl)c1ccc(-c2ccno2)cc1 (mixture of isomers) [INSCoV-601Q, 2-Chloro-N-(4-(isoxazol-5-yl)phenyl)-N-(2-oxo-1-(pyrazin-2-yl)-2-(((S)-tetrahydrofuran-3-yl)amino)ethyl)acetamid] | 150 | –
21 | O=C(NC1CCOCC1)C(c1cncnc1)N(C(=O)CCl)c1ccc(-c2cnco2)cc1 (stereo not drawn) [INSCoV-600A(2), 2-Chloro-N-(4-(Oxazol-5-yl)Phenyl)-N-(2-Oxo-1-(Pyrimidin-5-yl)-2-((Tetrahydro-2H-Pyran-4-yl)Amino)Ethyl)Acetamide] | 430 | –
22 | CC(C)(C)c1ccc(N(C(=O)CCl)C(C(=O)NC2CCCCC2)c2cnccn2)cc1 (stereo not drawn) [INSCoV-538, N-(4-(Tert-Butyl)Phenyl)-2-Chloro-N-(2-(Cyclohexylamino)-2-Oxo-1-(Pyrazin-2-yl)Ethyl)Acetamide] | 280 | –
23 | O=C(NC1CCC(F)(F)CC1)C(c1cncnc1)N(C(=O)CCl)c1ccc(-c2ccno2)cc1 (single isomer, unassigned) [INSCoV-600J(2), 2-Chloro-N-(2-((4,4-difluorocyclohexyl)amino)-2-oxo-1-(pyrimidin-5-yl)ethyl)-N-(4-(isoxazol-5-yl)phenyl)acetamide] | 530 | –

Row | Structure (SMILES) | IC50 [nM] | IC50 (listed as INSCoV-601R(lA)) [nM]
24 | O=C(NC1CCC(F)(F)CC1)C(c1cncnc1)N(C(=O)C1CO1)c1ccc(-c2ccno2)cc1 (stereo not drawn) [INSCoV-600Y, N-(2-((4,4-Difluorocyclohexyl)Amino)-2-Oxo-1-(Pyrimidin-5-yl)Ethyl)-N-(4-(Isoxazol-5-yl)Phenyl)Oxirane-2-Carboxamide] | 1990 | –
25 | COC(=O)c1ccc(NC(=O)[C@H](c2cncnc2)N(C(=O)CCl)c2ccc(-c3cncs3)cc2)[nH]1 [INSCoV-601T] | 170 | –
26 | O=C(NC1CCC(F)(F)CC1)[C@@H](c1cncnc1)N(C(=O)[C@H](F)Cl)c1ccc(-c2ccno2)cc1 (single isomer, unassigned) [INSCoV-614A(1B), 2-Chloro-N-(2-((4,4-difluorocyclohexyl)amino)-2-oxo-1-(pyrimidin-5-yl)ethyl)-2-fluoro-N-(4-(isoxazol-5-yl)phenyl)acetamide] | 5050 | –
27 | O=C(NCCc1ccccc1)C(c1cnccn1)N(C(=O)CCl)c1ccc(-c2cnco2)cc1 (stereo not drawn) [INSCoV-501P, 2-Chloro-N-(4-(Oxazol-5-vl)Phenyl)-N-(2-Oxo-2-(Phenethylamino)-1-(Pyrazin-2-yl)Ethyl)Acetamide] | 560 | –
28 | O=C(N[C@@H]1CCOC1)[C@H](c1cncnc1)N(C(=O)CCl)c1ccc(-c2cnco2)cc1 [INSCoV-600C(2A)] | 450 | –
29 | O=C(NC1CCCCC1)C(c1cnccn1)N(C(=O)CCl)c1ccc(-c2cnco2)cc1 (stereo not drawn) [INSCoV-501L] | 400 | –
30 | Cc1ccc(S(=O)(=O)CNC(=O)C(c2cnccn2)N(C(=O)CCl)c2ccc(-c3cnco3)cc2)cc1 (stereo not drawn) [INSCoV-501O, 2-Chloro-N-(4-(Oxazol-5-yl)Phenyl)-N-(2-Oxo-1-(Pyrazin-2-yl)-2-((Tosylmethyl)Amino)Ethyl)Acetamide] | 1500 | –
31 | N#Cc1cc(OC(F)(F)F)ccc1N(C(=O)C(F)Cl)C(C(=O)NC1CCC(F)(F)CC1)c1cncnc1 (mixture of isomers) [INSCoV-517C, 2-Chloro-N-(2-cyano-4-(trifluoromethoxy)phenyl)-N-(2-((4,4-difluorocyclohexyl)amino)-2-oxo-1-(pyrimidin-5-yl)ethyl)-2-fluoroacetamide] | 110 | –
32 | CC(C)c1cc(F)c(NC(=O)[C@@H](c2cncnc2)N(C(=O)CCl)c2ccc(-c3ccns3)cc2)c(F)c1 [INSCoV-601O] | 3060 | –
33 | O=C(NC1CCCCC1)C(c1cccnc1)N(C(=O)CCl)c1ccc(-c2cnco2)cc1 (stereo not drawn) [INSCoV-501] | 680 | –
34 | O=C(NC1CCS(=O)(=O)CC1)C(c1cncnc1)N(C(=O)CCl)c1ccc(-c2cnco2)cc1 (stereo not drawn) [INSCoV-501B, 2-Chloro-N-(2-((1,1-Dioxidotetrahydro-2H-Thiopyran-4-yl)Amino)-2-Oxo-1-(Pyrimidin-5-yl)Ethyl)-N-(4-(Oxazol-5-yl)Phenyl)Acetamide] | 600 | –
35 | C=CS(=O)(=O)N(c1ccc(C(C)(C)C)cc1)[C@@H](C(=O)NC1CCCCC1)c1cccnc1 [INSCoV-110-1] | 36000 | –
36 | Cc1ccc(S(=O)(=O)CNC(=O)C(c2cncnc2)N(C(=O)CCl)c2ccc(-c3cnco3)cc2)cc1 (stereo not drawn) [INSCoV-501D] | 2510 | –
37 | N#Cc1cc(OC(F)(F)F)ccc1N(C(=O)C(F)Cl)C(C(=O)NC1CCC(F)(F)CC1)c1cncnc1 (single isomer, unassigned) [INSCoV-517C(1), 2-Chloro-N-(2-cyano-4-(trifluoromethoxy)phenyl)-N-(2-((4,4-difluorocyclohexyl)amino)-2-oxo-1-(pyrimidin-5-yl)ethyl)-2-fluoroacetamide] | 11200 | –
38 | O=C(NC1CCCCC1)C(c1cccnc1)N(CCc1cccc(F)c1)C(=O)CCl (stereo not drawn) [INSCoV-558, 2-Chloro-N-(2-(Cyclohexylamino)-2-Oxo-1-(Pyridin-3-yl)Ethyl)-N-(3-Fluorophenethyl)Acetamide] | 330 | –
39 | Cc1cc(-c2cnco2)ccc1N(C(=O)CCl)C(C(=O)NC1CCCCC1)c1cncnc1 (stereo not drawn) [INSCoV-501G] | 260 | –
40 | CC(=O)c1ccc(NC(=O)[C@@H](c2cnccn2)N(C(=O)CCl)c2ccc(-c3ccns3)cc2)[nH]1 [INSCoV-601M] | 1150 | –
41 | N#Cc1cc(OC(F)(F)F)ccc1N(C(=O)C(F)Cl)C(C(=O)NC1CCC(F)(F)CC1)c1cncnc1 (single isomer, unassigned) [INSCoV-517C(3), 2-Chloro-N-(2-cyano-4-(trifluoromethoxy)phenyl)-N-(2-((4,4-difluorocyclohexyl)amino)-2-oxo-1-(pyrimidin-5-yl)ethyl)-2-fluoroacetamide] | 70 | –
42 | O=C(N[C@H]1CCOC1)C(c1cncnc1)N(C(=O)CCl)c1ccc(-c2cnco2)cc1 (stereo partly drawn) [INSCoV-600C(1)] | 270 | –
43 | N#CCC(=O)N(c1ccc(-c2cncs2)cc1)[C@H](C(=O)NC1CCC(F)(F)CC1)c1cncnc1 [INSCoV-612] | 23200 | –
44 | CC(C(=O)NC1CCC(F)(F)CC1)(c1cncnc1)N(C(=O)CCl)c1ccc(-c2ccno2)cc1 (single isomer, unassigned) [INSCoV-601P(1B), 2-(2-Chloro-N-(4-(isoxazol-5-yl)phenyl)acetamido)-N-(4,4-difluorocyclohexyl)-2-(pyrimidin-5-yl)propanamide] | 13700 | –
45 | O=C(NC1CCN(S(=O)(=O)C2CC2)CC1)C(c1cncnc1)N(C(=O)CCl)c1ccc(-c2cnco2)cc1 (stereo not drawn) [INSCoV-501H] | 720 | –

Source: patent publication US20230174488A1 (priority 2020, published 2023)
